Source: PubChem BioAssay (NCI)
Several values for one entry are separate records, joined by “and”; a condition that tells them apart may be missing. Equal entries are not always repeated.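 Compound exposure: 48 hours, 5 concentrations, 96-well plates. GI50 is the concentration that inhibits growth by half. TGI marks complete inhibition of growth.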

What was measured:
Assay in all cases: growth of human tumour cells (NCI), 48 h
MCF7 breast = system: MCF7 breast
NCI-H460 lung = system: NCI-H460 lung
IGROV1 ovarian = system: IGROV1 ovarian
A498 renal = system: A498 renal
DU-145 prostate = system: DU-145 prostate
OVCAR-3 ovarian = system: OVCAR-3 ovarian
ACHN renal = system: ACHN renal
RPMI-8226 leukemia = system: RPMI-8226 leukemia
OVCAR-5 ovarian = system: OVCAR-5 ovarian
SK-MEL-28 melanoma = system: SK-MEL-28 melanoma

Row | SMILES | GI50 (MCF7 breast) | TGI (MCF7 breast) | GI50 (NCI-H460 lung) | TGI (NCI-H460 lung) | GI50 (IGROV1 ovarian) | TGI (IGROV1 ovarian) | GI50 (A498 renal) | TGI (A498 renal) [µM] | GI50 (DU-145 prostate) | TGI (DU-145 prostate) | GI50 (OVCAR-3 ovarian) | TGI (OVCAR-3 ovarian) [µM] | GI50 (ACHN renal) | TGI (ACHN renal) | GI50 (RPMI-8226 leukemia) | TGI (RPMI-8226 leukemia) | GI50 (OVCAR-5 ovarian) | TGI (OVCAR-5 ovarian) [µM] | GI50 (SK-MEL-28 melanoma) | TGI (SK-MEL-28 melanoma)
1 | C#Cc1ccc(-n2c(/C=C/c3cc(OC)c(OC)c(OC)c3)nc3ncccc3c2=O)cc1 | 3.17 µM | > 100 µM | 4.11 µM | 25.3 µM | 6.08 µM | > 100 µM | 2.63 µM | 9.84 | 5.36 µM | > 100 µM | 2.33 µM | 6.42 | 6.63 µM | > 100 µM | 3.6 µM | > 100 µM | > 100 µM | > 100 | 34.6 µM | > 100 µM
2 | COc1cc(OC)c(/C=C/S(=O)(=O)Cc2ccc(OC)c(NCC(=O)O)c2)c(OC)c1 | 0.109 µM and 0.0586 µM | > 100 µM | 0.114 µM and 0.0451 µM | > 100 µM | 0.152 µM and 0.244 µM | > 100 µM | 0.0668 µM and 0.0448 µM |  | 0.29 µM and 0.176 µM |  | 0.0935 µM and 0.0702 µM | 0.533 | 0.178 µM and 0.452 µM | > 100 µM | 0.16 µM and 0.331 µM | > 100 µM | 0.347 µM and 0.47 µM | > 100 | 0.34 µM | > 10 µM
3 | COc1cc2c(cc1OC)[C@H]1C(=O)c3cc4c(cc3[C@H]1N(C)C2=O)OCO4 |  | > 100 µM |  | > 100 µM |  | > 100 µM |  | > 79.5 |  | > 100 µM |  | > 100 |  | > 100 µM |  | > 100 µM |  | > 100 |  | > 100 µM
4 | COc1ccc(N(Cc2cc(OC)c(OC)c(OC)c2)C2OC(=O)c3ccccc32)cc1 (stereo not drawn) | 0.386 µM | > 100 µM | 0.394 µM | > 60.2 µM | 1.07 µM | > 100 µM | 0.249 µM | 1.61 | 0.886 µM | 54.3 µM | 0.368 µM | 1.98 | 0.69 µM | > 100 µM | 0.539 µM | > 100 µM | 3.53 µM | > 100 |  | > 100 µM
5 | CCOc1cccnc1/C=N/NC(N)=S | 3.25 µM | > 100 µM | 3.48 µM | > 100 µM | 5.01 µM | > 100 µM | 3.95 µM | > 100 | 3.53 µM | > 100 µM | 4.44 µM | > 100 | 4.01 µM | > 100 µM | 3.82 µM | > 100 µM | 6.37 µM | > 100 | 4.75 µM | > 100 µM
6 | COc1cc(OC)cc(N2CCN(C(=O)Nc3nc4cc(F)ccc4nc3OC)CC2)c1 | 0.0239 µM and 0.0265 µM and 0.0142 µM | 24.7 µM and 22.8 µM | 0.0323 µM and 0.0358 µM and 0.0339 µM | 25.3 µM and 14.9 µM | 0.0441 µM and 0.0988 µM and 0.062 µM | 32.3 µM and 39.5 µM | < 0.0164 µM and 0.0126 µM |  | 0.0438 µM and 0.0429 µM and 0.0403 µM | > 100 µM and 34.9 µM | 0.0232 µM and 0.0252 µM and 0.0219 µM |  | 0.0129 µM and 0.0608 µM and 0.0408 µM | 25.6 µM and > 100 µM | < 0.0182 µM and 0.0386 µM and 0.0416 µM | 13.8 µM and 20 µM | 0.0557 µM and 0.158 µM and 0.0528 µM | > 100 | 10.9 µM and 6.92 µM | 74.9 µM and 37 µM
7 | CCSc1nc(N)c2cnn(C)c2n1 | 28 µM | > 100 µM | 31.6 µM | > 100 µM | 53.5 µM | > 100 µM | 3.26 µM | 21.5 | 40 µM | > 100 µM | 30.6 µM | > 100 | 44.4 µM | > 100 µM | 37.5 µM | > 100 µM | 49.9 µM | > 100 | 62.3 µM | > 100 µM
8 | N#CC1(C#N)C2C=CC(C3CCC=C32)C1(C#N)C#N (stereo not drawn) |  | > 10 µM |  | > 10 µM |  | > 10 µM |  | > 10 |  | > 10 µM |  | > 10 |  | > 10 µM |  | 8.79 µM |  | > 10 |  | > 10 µM
9 | C[C@]12CC[C@@H]3c4ccc(O)cc4CC[C@H]3[C@@H]1CC[C@@H]2NS(=O)(=O)c1ccc(-c2ccccc2)cc1 | 3.56 µM | 11.2 µM | 3.05 µM | 9.48 µM | 6.66 µM | > 100 µM | 1.96 µM | 9.13 | 6.54 µM | > 100 µM | 3.32 µM | 12.7 | 2.98 µM | 20.1 µM | 2.51 µM | 11.4 µM | 4.76 µM | 19.2 | 5.52 µM | 54.6 µM
10 | COc1cc(C(=O)/C=C/c2c(C(F)(F)F)nc3sccn23)cc(OC)c1OC | 1.25 µM | 3.33 µM | 1.65 µM | 3.94 µM | 2.66 µM | 61.4 µM | 1.89 µM | 3.42 | 1.41 µM | 2.86 µM | 1.86 µM | 3.4 | 1.82 µM | 3.66 µM | 1.08 µM | 4.53 µM |  |  | 1.69 µM | 3.1 µM
11 | CC(C)(C)NCCC(O)c1cc(C(F)(F)F)nc2c(C(F)(F)F)cccc12 (stereo not drawn) |  | 27.6 µM |  | 16.8 µM |  | 23.8 µM |  | 28.3 |  | 6.17 µM |  | 20.4 |  | 21.1 µM |  | 17.1 µM |  | 29.3 |  | 30.7 µM
12 | OCCCCC#Cc1ccccc1C#Cc1cnccn1 | 44.6 µM | > 100 µM | 27.4 µM | 96.9 µM | 25.8 µM | 96 µM | 13.5 µM | 53.9 | 13.8 µM | > 100 µM | 31.3 µM | > 100 | 38.8 µM | > 100 µM | 26.7 µM | > 100 µM | 47.7 µM | > 100 | 43.4 µM | > 100 µM
13 | O=c1[nH]c(-c2ccccn2)nc2sc3c(c12)CCCCCC3 | 2.47 µM | > 100 µM | 1.91 µM | > 100 µM | 3.98 µM | > 100 µM | 1.31 µM | > 100 | 6.73 µM | > 100 µM | 8.51 µM | > 100 | 5.19 µM | > 100 µM | 3.63 µM | > 100 µM | 90.9 µM | > 100 | 6.01 µM | > 100 µM
14 | CC1(C)CC2(C)OC2C2(C1)N=NC(=Nc1ccccc1)O2 (stereo not drawn) | 1.81 µM | 13.2 µM | 11.3 µM | 31.5 µM | 2.48 µM | 5.99 µM | 16.7 µM | 34.8 | 4.78 µM | 18.7 µM | 2.23 µM | 4.81 | 2 µM | 6.12 µM | 2.41 µM | 6.82 µM | 11.2 µM | 26.2 | 11.9 µM | 27.4 µM
